Values quoted from earlier work, collected in patent US20240390332A1, “Combination treatment and/or prevention of renal diseases and/or hypertension in non-human mammals comprising one or more SGLT-2 inhibitors and telmisartan” (BOEHRINGER INGELHEIM VETMEDICA GMBH, priority 2023, published 2024).

System: human patients suffering from diabetes mellitus type II
Conditions: baseline to week 12, empagliflozin 10 mg and 25 mg groups vs placebo

## OC[C@H]1O[C@@H](c2ccc(Cl)c(Cc3ccc(O[C@H]4CCOC4)cc3)c2)[C@H](O)[C@@H](O)[C@@H]1O [empagliflozin, Empagliflozin]
  mean 24-hour systolic BP, placebo-subtracted mean difference: up to −4.16 mmHg
